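These data come from cells grown in 96-well plates and exposed to compound for 48 hours at five concentrations. GI50 = concentration required for 50% inhibition of growth.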 The source made the active and inactive calls. No stated cut-off is given here; in the data, active = GI50 up to about 1.1 µM and inactive = higher.
Legend:
Experiment in all cases: NCI tumour cell line growth inhibition, 48 h
BT-549 = tested on: BT-549
CAKI-1 = tested on: CAKI-1
CCRF-CEM = tested on: CCRF-CEM
DU-145 = tested on: DU-145
EKVX = tested on: EKVX
HCC 2998 = tested on: HCC 2998
HL-60 = tested on: HL-60
IGROV-1 = tested on: IGROV-1
K562 = tested on: K562
M14 = tested on: M14
MDA-N = tested on: MDA-N
NCI-H23 = tested on: NCI-H23
NCI/ADR-RES = tested on: NCI/ADR-RES
PC-3 = tested on: PC-3
SF-268 = tested on: SF-268
SF-539 = tested on: SF-539
SK-MEL-2 = tested on: SK-MEL-2
SK-OV-3 = tested on: SK-OV-3
UO-31 = tested on: UO-31

Structure (SMILES)	GI50 (BT-549)	GI50 (CAKI-1)	GI50 (CCRF-CEM)	GI50 (DU-145)	GI50 (EKVX)	GI50 (HCC 2998)	GI50 (HL-60)	GI50 (IGROV-1)	GI50 (K562)	GI50 (M14)	GI50 (MDA-N)	GI50 (NCI-H23)	GI50 (NCI/ADR-RES)	GI50 (PC-3)	GI50 (SF-268)	GI50 (SF-539)	GI50 (SK-MEL-2)	GI50 (SK-OV-3)	GI50 (UO-31)
C=C(CC)C(=O)c1ccc(OCC(=O)O)c(Cl)c1Cl [ETHACRYNIC ACID]	4.99 µM (inactive)	14.9 µM (inactive)	35.8 µM (inactive)	29.5 µM (inactive)	17.5 µM (inactive)	17.8 µM (inactive)	28.3 µM (inactive)	22 µM (inactive)	53 µM (inactive)	18.5 µM (inactive)	23.1 µM (inactive)	25 µM (inactive)	26.7 µM (inactive)	24.9 µM (inactive)	16.7 µM (inactive)	7.87 µM (inactive)	17.1 µM (inactive)	48.1 µM (inactive)	19.5 µM (inactive)
Cc1cc(S(=O)(=O)Nc2nc(N)n(C)n2)c(S)cc1Cl	> 10 µM (inactive)	> 10 µM (inactive)	> 10 µM (inactive)	> 10 µM (inactive)	> 10 µM (inactive)	> 10 µM (inactive)	> 10 µM (inactive)	> 10 µM (inactive)	> 10 µM (inactive)	> 10 µM (inactive)	> 10 µM (inactive)	> 10 µM (inactive)	> 10 µM (inactive)	> 10 µM (inactive)	> 10 µM (inactive)	> 10 µM (inactive)	> 10 µM (inactive)	> 10 µM (inactive)	> 10 µM (inactive)
C[C@@H]1CC[C@H]2C(C)(C)[C@H]3C[C@@]12CC[C@@]3(C)O [CEDROL]	> 100 µM (inactive)	> 100 µM (inactive)	> 100 µM (inactive)	> 100 µM (inactive)	> 100 µM (inactive)	52.2 µM (inactive)	18.7 µM (inactive)	> 100 µM (inactive)	92 µM (inactive)	> 100 µM (inactive)	> 100 µM (inactive)	> 100 µM (inactive)	> 100 µM (inactive)	> 100 µM (inactive)	> 100 µM (inactive)	> 100 µM (inactive)	> 100 µM (inactive)	> 100 µM (inactive)	> 100 µM (inactive)
N#Cc1nc(Sc2cnsn2)c(Sc2cnsn2)nc1C#N	21.4 µM (inactive)	6.47 µM (inactive)	0.426 µM (active)	17.1 µM (inactive)	10.4 µM (inactive)	18.7 µM (inactive)	1.95 µM (inactive)	18.5 µM (inactive)	2.9 µM (inactive)	20.4 µM (inactive)	20.4 µM (inactive)	21.6 µM (inactive)	22.8 µM (inactive)	21.6 µM (inactive)	19.4 µM (inactive)	19.4 µM (inactive)	21.2 µM (inactive)	17.9 µM (inactive)	9.44 µM (inactive)
N#CSC#CCCC#CSC#N	21.7 µM (inactive)	19 µM (inactive)	3.1 µM (inactive)	15 µM (inactive)	17.7 µM (inactive)	17.5 µM (inactive)	> 100 µM (inactive)	20.3 µM (inactive)	13.4 µM (inactive)	12.9 µM (inactive)	18.2 µM (inactive)	20.6 µM (inactive)	28.2 µM (inactive)	20.9 µM (inactive)	30.1 µM (inactive)	19.5 µM (inactive)	20.3 µM (inactive)	16.1 µM (inactive)	18 µM (inactive)
Cc1cc(C)c(S(=O)(=O)N[C@@H](/C=C(\Br)CO)C(C)C)c(C)c1	40.3 µM (inactive)	33.2 µM (inactive)	27.3 µM (inactive)	34.5 µM (inactive)	35.6 µM (inactive)	24.5 µM (inactive)	17.9 µM (inactive)	29.9 µM (inactive)	18.5 µM (inactive)	30.5 µM (inactive)	26.1 µM (inactive)	33 µM (inactive)	36.5 µM (inactive)	17.2 µM (inactive)	30.7 µM (inactive)	31.8 µM (inactive)	16.1 µM (inactive)	50.5 µM (inactive)	33 µM (inactive)
CC(=O)OCC(Br)C1(C)CCC(C(C)(C)Br)O1 (centres undefined)	79.6 µM (inactive)	> 100 µM (inactive)	> 100 µM (inactive)	> 100 µM (inactive)	> 100 µM (inactive)	98.6 µM (inactive)	> 100 µM (inactive)	80.2 µM (inactive)	> 100 µM (inactive)	89.7 µM (inactive)	44.7 µM (inactive)	65.5 µM (inactive)	> 100 µM (inactive)	29.4 µM (inactive)	> 100 µM (inactive)	> 100 µM (inactive)	39.1 µM (inactive)	> 100 µM (inactive)	39.6 µM (inactive)
N#CC1=C(N2CCOCC2)CCC1	> 100 µM (inactive)	> 100 µM (inactive)	> 100 µM (inactive)	> 100 µM (inactive)	> 100 µM (inactive)	> 100 µM (inactive)	> 100 µM (inactive)	> 100 µM (inactive)	> 100 µM (inactive)	> 100 µM (inactive)	52.6 µM (inactive)	> 100 µM (inactive)	> 100 µM (inactive)	> 100 µM (inactive)	> 100 µM (inactive)	> 100 µM (inactive)	> 100 µM (inactive)	> 100 µM (inactive)	> 100 µM (inactive)
COC(=O)/C=C/c1cc(OC)c2oc(-c3ccc(OC)c(OC)c3)c(C(=O)OC)c2c1	> 100 µM (inactive)	> 100 µM (inactive)	> 100 µM (inactive)	> 100 µM (inactive)	> 100 µM (inactive)	> 100 µM (inactive)	> 100 µM (inactive)	> 100 µM (inactive)	> 100 µM (inactive)	> 100 µM (inactive)	> 100 µM (inactive)	> 100 µM (inactive)	> 100 µM (inactive)	> 100 µM (inactive)	> 100 µM (inactive)		> 100 µM (inactive)	> 100 µM (inactive)	> 100 µM (inactive)
CC(C)c1ccc(O)c(=O)c(O)c1.CC(C)c1ccc(O)c(=O)cc1.CC(C)c1cccc(=O)c(O)c1.CC(C)c1ccccc(=O)c1O	4.8 µM (inactive)	1.36 µM (inactive)	0.21 µM (active)	1.42 µM (inactive)	6.15 µM (inactive)	0.304 µM (active)	0.281 µM (active)	1.36 µM (inactive)	0.571 µM (active)	1.8 µM (inactive)	3.32 µM (inactive)	0.851 µM (active)	0.42 µM (active)	0.416 µM (active)	0.632 µM (active)	0.598 µM (active)	0.204 µM (active)	4.37 µM (inactive)	0.841 µM (active)
Cc1ccc2[nH]c3c(c2c1)C1CCC(C(C)(C)C)CC1C1C(=O)N(c2ccc4c(c2)OCO4)C(=O)C31 (centres undefined)	7.87 µM (inactive)	2.3 µM (inactive)	1.82 µM (inactive)	2.99 µM (inactive)	3.57 µM (inactive)	2.38 µM (inactive)	2.72 µM (inactive)	2.45 µM (inactive)	3.01 µM (inactive)	4.7 µM (inactive)	5.41 µM (inactive)	6.55 µM (inactive)	3.1 µM (inactive)	3.07 µM (inactive)	2.03 µM (inactive)	1.35 µM (inactive)	7.18 µM (inactive)	2.58 µM (inactive)	2.55 µM (inactive)
COc1ccc(OC)c(CC2CCc3nc(N)nc(N)c3C2)c1 (centres undefined)	0.146 µM (active)	27.1 µM (inactive)	0.515 µM (active)	1.62 µM (inactive)	15.6 µM (inactive)	0.69 µM (active)	3.58 µM (inactive)	< 0.0453 µM (active)	> 100 µM (inactive)	0.342 µM (active)	< 0.01 µM (active)	0.251 µM (active)	2.8 µM (inactive)	0.0316 µM (active)	< 0.0192 µM (active)	0.275 µM (active)	23.6 µM (inactive)		4.85 µM (inactive)
CC1(C)N=C(N)N=C(N)N1CCCCc1ccccc1	2.16 µM (inactive)	7.94 µM (inactive)	0.483 µM (active)	3.57 µM (inactive)	2.21 µM (inactive)	13.3 µM (inactive)	0.431 µM (active)	0.232 µM (active)	< 0.0177 µM (active)	0.181 µM (active)	0.046 µM (active)	0.31 µM (active)	> 90.2 µM (inactive)	9.51 µM (inactive)	< 0.025 µM (active)	0.34 µM (active)	> 32.9 µM (inactive)		64.3 µM (inactive)
COc1cccc(-c2cc(O)c3cc(N4CCOCC4)ccc3n2)c1	0.964 µM (active)	0.0426 µM (active)	0.0288 µM (active)	0.038 µM (active)	0.363 µM (active)	0.0656 µM (active)	0.0194 µM (active)	0.0575 µM (active)	0.0212 µM (active)		0.0069 µM (active)	0.0289 µM (active)	0.0845 µM (active)	0.0364 µM (active)	0.0552 µM (active)	0.0217 µM (active)	0.0313 µM (active)		0.0372 µM (active)
COc1ccc(/C=C2\C[C@H]3[C@@H]4CCC5=C[C@@H](N6CCCC6)CC[C@]5(C)[C@H]4CC[C@]3(C)[C@H]2O)cc1	5.85 µM (inactive)	3.52 µM (inactive)		4.91 µM (inactive)	3.81 µM (inactive)	1.31 µM (inactive)	1.95 µM (inactive)	4.28 µM (inactive)	2.16 µM (inactive)	1.51 µM (inactive)	1.57 µM (inactive)	3.44 µM (inactive)	4.39 µM (inactive)	2.25 µM (inactive)	2.92 µM (inactive)	2.15 µM (inactive)	1.88 µM (inactive)	5.18 µM (inactive)	1.72 µM (inactive)
